Holding throughout (type): biochemical
The target of assay [1] is cdc2/cyclinB (Homo sapiens, UniProt P06493). In words: Cyclin-dependent kinase assay (cdc2/cyclinB). The conditions noted are these: Table 1; read-out: cdk1/B IC50. The method, then: (§1) All components except the ATP were added to the wells, and the plate was placed on a plate mixer for 2 minutes. […] The reaction was terminated by addition of 0.1 mL of 20% TCA. The plate was kept at 4°C for at least 1 hour to allow the substrate to precipitate. The wells were then washed five times with 0.2 mL of 10% TCA and ^32P incorporation determined with a beta plate counter (Wallac Inc., Gaithersburg, MD).
Chain of cdc2/cyclinB (P06493 whole entry): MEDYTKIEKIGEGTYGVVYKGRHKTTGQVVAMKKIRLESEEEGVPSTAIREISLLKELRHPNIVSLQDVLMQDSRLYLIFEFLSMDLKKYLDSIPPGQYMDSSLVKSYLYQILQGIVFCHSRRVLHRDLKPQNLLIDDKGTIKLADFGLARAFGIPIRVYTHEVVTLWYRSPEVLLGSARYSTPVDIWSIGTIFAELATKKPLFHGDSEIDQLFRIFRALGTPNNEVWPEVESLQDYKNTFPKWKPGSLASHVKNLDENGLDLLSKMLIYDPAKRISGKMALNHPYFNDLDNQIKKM
Chain of cdc2/cyclinB (P14635 whole entry, further chain): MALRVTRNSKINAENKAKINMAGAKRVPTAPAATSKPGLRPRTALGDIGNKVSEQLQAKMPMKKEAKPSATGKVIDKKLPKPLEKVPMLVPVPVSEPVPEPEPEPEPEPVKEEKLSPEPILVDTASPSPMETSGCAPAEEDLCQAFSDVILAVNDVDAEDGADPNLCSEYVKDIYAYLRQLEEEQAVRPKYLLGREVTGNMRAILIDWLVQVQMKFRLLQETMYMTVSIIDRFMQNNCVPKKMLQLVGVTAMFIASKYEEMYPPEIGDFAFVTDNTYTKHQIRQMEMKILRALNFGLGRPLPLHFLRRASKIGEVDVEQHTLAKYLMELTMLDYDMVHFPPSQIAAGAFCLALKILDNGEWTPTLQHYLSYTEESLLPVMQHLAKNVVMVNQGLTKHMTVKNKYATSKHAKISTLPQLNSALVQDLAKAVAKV

In assay [2] the target is cdk2/cyclinE (Homo sapiens, UniProt P24941). In words: Cyclin-dependent kinase assay (cdk2/cyclinE). The following applies: Table 1; read-out: cdk2/E IC50. The method, then:
as §1

Assay [3] has as its target cdk4/D (Homo sapiens, UniProt P11802). In words: Cyclin-dependent kinase 4 (cdk4) enzyme assay, 32P incorporation into retinoblastoma. The following applies: for inhibition at 40 µM: read-out: cdk4/D % inhibition at 40 µM. The method, then: A typical assay, for instance, measures inhibitory activity against the cyclin D dependent kinase 4 enzyme (cdk4/D). […] The cdk 4 assay was carried out as follows.
All components except the ATP were added to the wells, and the plate was placed on a plate mixer for 2 minutes. […] The reaction was terminated by addition of 0.1 mL of 20% trichloroacetic acid (TCA). The plate was kept at 4°C for at least 1 hour to allow the substrate to precipitate. The wells were then washed five times with 0.2 mL of 10% TCA and ^32P incorporation was determined with a beta plate counter (Wallac Inc., Gaithersburg, MD).

The target of assay [4] is cdk2/cyclinA (Homo sapiens, UniProt P24941). Nature of the assay: Cyclin-dependent kinase assay (cdk2/cyclinA). The following applies: Table 1. The method, then:
as §1

[5] abbreviates: Table 1, 25 µM ATP, retinoblastoma substrate.

SMILES strings stand for the structures. Where two headings read alike, the source gives them in different places.

Chain of cdk4/D (P11802 whole entry): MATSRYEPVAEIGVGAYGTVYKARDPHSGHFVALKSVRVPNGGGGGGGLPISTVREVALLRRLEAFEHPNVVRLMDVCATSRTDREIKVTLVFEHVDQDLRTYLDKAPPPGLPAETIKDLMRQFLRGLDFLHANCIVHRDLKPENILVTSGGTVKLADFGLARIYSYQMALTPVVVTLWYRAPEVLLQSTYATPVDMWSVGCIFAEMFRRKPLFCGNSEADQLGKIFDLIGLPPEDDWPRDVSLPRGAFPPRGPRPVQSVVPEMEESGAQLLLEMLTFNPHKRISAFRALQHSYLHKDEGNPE
Chain of cdk4/D (P24385 whole entry, further chain): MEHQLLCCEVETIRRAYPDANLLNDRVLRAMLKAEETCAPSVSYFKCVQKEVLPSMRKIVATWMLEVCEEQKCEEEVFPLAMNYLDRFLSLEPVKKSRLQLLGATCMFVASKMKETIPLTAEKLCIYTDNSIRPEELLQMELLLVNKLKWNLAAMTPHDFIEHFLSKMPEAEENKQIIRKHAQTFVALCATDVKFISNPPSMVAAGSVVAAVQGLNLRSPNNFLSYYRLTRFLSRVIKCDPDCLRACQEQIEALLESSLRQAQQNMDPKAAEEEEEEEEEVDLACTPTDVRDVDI

On to `CCN(CC)c1ccc(Nc2ncc3ccc(=O)n(CC)c3n2)cc1` [Example 78, 2-(4-Diethylamino-phenylamino)-8-ethyl-8H-pyrido[2,3-d]pyrimidin-7-one], for which the IC50 amounted to 740 nM in assay [1], 2940 nM in assay [2], 1300 nM in assay [3] (setting [5]) and 2240 nM in assay [4].
In assay [3] (setting [5]), `CCn1c(=O)ccc2cnc(Nc3ccc(OCc4ccccc4)cc3)nc21` [Example 56, 2-Benzyloxyphenylamino-8-ethyl-8H-pyrido[2,3-d]pyrimidin-7-one] yielded an IC50 of 25000 nM.
In the case of `CCn1c(=O)c(C)cc2cnc(Nc3ccccc3)nc21` [Example 83, 8-Ethyl-6-methyl-2-phenylamino-8H-pyrido[2,3-d]pyrimidin-7-one], the IC50 in assay [3] (setting [5]) was 1800 nM.
On the same count and under the same terms, under `CCn1c(=O)ccc2cnc(Nc3cccc(F)c3)nc21` [Example 89, 8-Ethyl-2-(3-fluorophenylamino)-8H-pyrido[2,3-d]pyrimidin-7-one] stands 1400 nM.
Still for that read-out and setting: under `CCn1c(=O)ccc2cnc(Nc3ccc(N4CCOCC4)cc3)nc21` [Example 79, 8-Ethyl-2-(4-morpholin-4-yl-phenylamino)-8H-pyrido[2,3-d]pyrimidin-7-one] stands 300 nM; under `Cn1c(=O)ccc2cnc(NCCc3ccccn3)nc21` [Example 66, 8-Methyl-2-(2-pyridin-2-yl-ethylamino)-8H-pyrido[2,3-d]pyrimidin-7-one], 45000 nM.
In the case of `CCn1c(=O)ccc2cnc(Nc3ccc(OC)cc3)nc21` [Example 51, 8-Ethyl-2-(4-methoxyphenylamino)-8H-pyrido[2,3-d]pyrimidin-7-one], the IC50 in assay [1] was 665 nM; in assay [2], 422 nM; in assay [3] (setting [5]), 600 nM; in assay [4], 134 nM.
`CCNc1nc(Nc2ccccc2)ncc1CCC(=O)OCC` [Example 68, 3-(4-Ethylamino-2-phenylamino-pyrimidin-5-yl)propionic acid ethyl ester]: the IC50 in assay [3] (Table 2, Formula II compounds) came out at 90000 nM. Also, the inhibition at 40 µM in assay [3] (at 40 µM, Table 2) worked out at 37%.
As for `Cn1c(=O)ccc2cnc(NCc3ccccc3)nc21` [Example 63, 2-Benzylamino-8-methyl-8H-pyrido[2,3-d]pyrimidin-7-one], the values for the IC50 in assay [1] and in assay [4] were 21600 nM and 38100 nM, respectively.
Regarding `CCNc1ncc2ccc(=O)n(CC)c2n1` [Example 45, 8-Ethyl-2-ethylamino-8H-pyrido[2,3-d]pyrimidin-7-one], the IC50 in assay [1] turned out to be 9230 nM; in assay [2], 3930 nM; in assay [3] (setting [5]), 12000 nM; in assay [4] it was 2460 nM.
As for `CCNc1nc(Nc2ccccc2)ncc1C(C)=CC(=O)OCC` [Example 73, 3-(4-Ethylamino-2-phenylamino-pyrimidin-5-yl)-but-2-enoic acid ethyl ester], the inhibition at 40 µM in assay [3] (at 40 µM, Table 2) was found to be 58%.
The compound `COCn1c(=O)ccc2cnc(Nc3ccccc3)nc21` [Example 37, 8-Methoxymethyl-2-phenylamino-8H-pyrido[2,3-d]pyrimidin-7-one] registered an IC50 in assay [3] (setting [5]) of 4200 nM.
`COc1ccc(Cn2c(=O)ccc3cnc(Nc4ccccc4)nc32)cc1` [Example 58, 8-(4-Methoxybenzyl)-2-phenylamino-8H-pyrido[2,3-d]pyrimidin-7-one] showed an IC50 in assay [3] (setting [5]) of 10000 nM.
As for `CCn1c(=O)ccc2cnc(Nc3cccc(OC(F)(F)C(F)F)c3)nc21` [Example 54, 8-Ethyl-2-[3-(1,1,2,2-tetrafluoroethoxy)-phenylamino]-8H-pyrido[2,3-d]pyrimidin-7-one], the IC50 came to 91 nM in assay [1], 1200 nM in assay [2], 7830 nM in assay [3] (setting [5]) and 238 nM in assay [4].
With `CCn1c(=O)ccc2cnc(Nc3ccc(N(C)C)cc3)nc21` [Example 93, 2-(4-Dimethylamino-phenylamino)-8-ethyl-8H-pyrido[2,3-d]pyrimidin-7-one], the IC50 was found to be 780 nM in assay [1], 1770 nM in assay [2], 380 nM in assay [3] (setting [5]) and 280 nM in assay [4].
`CCn1c(=O)ccc2cnc(NC(C)C)nc21` [Example 47, 8-Ethyl-2-isopropylamino-8H-pyrido[2,3-d]pyrimidin-7-one]: the IC50 in assay [1] stood at 3550 nM; in assay [3] (setting [5]) it was 3700 nM.
In assay [3] (setting [5]), `CC(C)Nc1ncc2ccc(=O)n(C)c2n1` [Example 67, 2-Isopropylamino-8-methyl-8H-pyrido[2,3-d]pyrimidin-7-one] gave an IC50 of 25000 nM.
Consider `CCn1c(=O)ccc2cnc(Nc3ccc(F)cc3)nc21` [Example 88, 8-Ethyl-2-(4-fluorophenylamino)-8H-pyrido[2,3-d]pyrimidin-7-one], for which the IC50 worked out at 2070 nM in assay [1], 280 nM in assay [2], 1300 nM in assay [3] (setting [5]) and 440 nM in assay [4].
As to `CCn1c(=O)ccc2cnc(Nc3ccc(-c4ccccc4)cc3)nc21` [Example 49, 2-(Biphenyl-4-ylamino)-8-ethyl-8H-pyrido[2,3-d]pyrimidin-7-one], the IC50 in assay [3] (setting [5]) is 2000 nM.
The same measure, in the same setting: to `CCC(CC)n1c(=O)ccc2cnc(Nc3ccccc3)nc21` [Example 74, 8-(1-Ethylpropyl)-2-phenylamino-8H-pyrido[2,3-d]pyrimidin-7-one] belongs 141 nM.
The compound `COCCn1c(=O)ccc2cnc(Nc3ccccc3)nc21` [Example 86, 8-(2-Methoxyethyl)-2-phenylamino-8H-pyrido[2,3-d]pyrimidin-7-one] returned an IC50 in assay [3] (setting [5]) of 2400 nM.
`O=c1ccc2cnc(Nc3ccccc3)nc2[nH]1` [Example 32, 2-Phenylamino-8H-pyrido[2,3-d]pyrimidin-7-one]: the IC50 in assay [1] was determined as 32600 nM; in assay [2], 12800 nM; in assay [4], 4660 nM.
Take `CCn1c(=O)ccc2cnc(NC(C)(C)C)nc21` [Example 46, 2-tert-Butylamino-8-ethyl-8H-pyrido[2,3-d]pyrimidin-7-one]: the IC50 in assay [1] stood at 3410 nM; in assay [3] (setting [5]) it was 5300 nM.
`CCn1c(=O)ccc2cnc(Nc3ccc(OCCOC)cc3)nc21` [Example 57, 8-Ethyl-2-[4-(2-methoxyethoxy)phenylamino]-8H-pyrido[2,3-d]pyrimidin-7-one]: the IC50 in assay [3] (setting [5]) was determined as 800 nM.
In the case of `CCn1c(=O)ccc2cnc(Nc3ccc(N4CCN(C)CC4)cc3)nc21` [Example 53, 8-Ethyl-2-[4-(4-methylpiperazin-1-yl)-phenylamino]-8H-pyrido[2,3-d]pyrimidin-7-one], the IC50 was 1880 nM in assay [1], 1190 nM in assay [2], 85 nM in assay [3] (setting [5]) and 339 nM in assay [4].
Turning to `CCN1C(=O)CCc2cnc(Nc3ccccc3)nc21` [Example 69, 8-Ethyl-2-phenylamino-5,8-dihydro-6H-pyrido[2,3-d]pyrimidin-7-one], in assay [3] (setting [5]), the IC50 worked out at 4300 nM.
For the compound `Cn1c(=O)ccc2cnc(Nc3ccccc3)nc21` [Example 61, 8-Methyl-2-phenylamino-8H-pyrido[2,3-d]pyrimidin-7-one], the IC50 in assay [1] came to 1760 nM; in assay [2] it was 860 nM; in assay [3] (setting [5]), 6900 nM; in assay [4], 490 nM.
Regarding `CCNc1ncc2ccc(=O)n(-c3ccccc3)c2n1` [Example 100, 2-Ethylamino-8-phenyl-8H-pyrido[2,3-d]pyrimidin-7-one], the IC50 in assay [3] (setting [5]) was found to be 19000 nM.
As for `CCn1c(=O)ccc2cnc(NCc3ccccc3)nc21` [Example 44, 2-Benzylamino-8-ethyl-8H-pyrido[2,3-d]pyrimidin-7-one], the results for the IC50 in assay [1] and in assay [4] were 16700 nM and 6460 nM, respectively.
`O=c1ccc2cnc(Nc3ccccc3)nc2n1CCCOc1ccccc1` [Example 87, 8-(3-Phenoxypropyl)-2-phenylamino-8H-pyrido[2,3-d]pyrimidin-7-one]: the IC50 in assay [1] is 1080 nM.
Turning to `CCCCNc1ncc2ccc(=O)n(C)c2n1` [Example 64, 2-Butylamino-8-methyl-8H-pyrido[2,3-d]pyrimidin-7-one], the IC50 in assay [3] (setting [5]) worked out at 40000 nM.
On the same count and under the same terms, to `CCn1c(=O)ccc2cnc(Nc3ccc(O)cc3)nc21` [Example 55, 8-Ethyl-2-(4-hydroxyphenylamino)-8H-pyrido[2,3-d]pyrimidin-7-one] belongs 600 nM.
Regarding `CCNc1nc(Nc2ccccc2)ncc1C=CC#N` [Example 72, 3-(4-Ethylamino-2-phenylamino-pyrimidin-5-yl)acrylonitrile], in assay [3], the inhibition at 40 µM came out at 18%.
In the case of `CCC(C)n1c(=O)ccc2cnc(Nc3ccccc3)nc21` (centres unmarked) [Example 85, 8-sec-Butyl-2-phenylamino-8H-pyrido[2,3-d]pyrimidin-7-one], the IC50 in assay [3] (setting [5]) stood at 200 nM.
Consider `CCn1c(=O)ccc2cnc(Nc3cccc(F)c3OC)nc21` [Example 91, 8-Ethyl-2-(3-fluoro-2-methoxyphenylamino)-8H-pyrido[2,3-d]pyrimidin-7-one], for which, in assay [3] (setting [5]), the IC50 was 9000 nM.
Consider `O=c1ccc2cnc(Nc3ccccc3)nc2n1CC1CO1` (centres unmarked) [Example 39, 8-Oxiranylmethyl-2-phenylamino-8H-pyrido[2,3-d]pyrimidin-7-one], for which the IC50 in assay [3] (setting [5]) is 5000 nM.
Same read-out and setting: under `CCn1c(=O)ccc2cnc(Nc3ccc(OC)c(F)c3)nc21` [Example 90, 8-Ethyl-2-(3-fluoro-4-methoxyphenylamino)-8H-pyrido[2,3-d]pyrimidin-7-one] stands 1000 nM.

(Values after patent publication EP1806348A2, “Pyrido (2,3-D)Pyrimidines as inhibitors of cellular proliferation” (Warner-Lambert Company LLC, priority 1997, dated 1998).)
